From patent US6518450B2, “Guaiacoxypropanolamines with alpha/beta adrenergic blocking activity” (priority 1997, dated 2003)
Read-outs that look alike come from different tables or passages of the source. Marks after values point to notes of the source that are not given here.

Experiments:
[1] = tested on: isolated guinea pig thoracic aorta; conditions: 10 μM L-phenylephrine contraction, mean ± S.E. (n=6)
Text: A 300-450 gram guinea pig is obtained, and forcefully hit at the head, and blood drained from the artery at the neck to quickly retrieve the main chest artery, which is placed in chilled Kreb solution and the fatty tissue clung to the vicinity of the blood vein is carefully removed, and then the main chest artery is trimmed to a circular shape of approximately 5 mm. Two S-shaped platinum threads are used to stabilize the top and bottom of the main artery before placing it in a 10-milliliter organ tank with 95% oxygen and 5% carbon dioxide mixed gas. One end is connected to the bottom of the organ tank, and the other end connected to the force transducer, and a recorder is used to record the isometric contraction. The specimen is given one gram of tension, and after balancing for 60 minutes, 10 μM of phenylephrine is prescribed to test the vivacity of the main chest artery. Upon balancing and the phenylephrine rinsed off, 10 μM of phenylephrine is used again to achieve the maximum contraction. And upon balancing, different concentration of synthetic testing compounds are used, 10^−5 M, 10^−6 M, or 10^−7 M, to observe the suppressing effects resulted from different concentrations of synthetic testing compounds.

β1-adrenoceptor [2] = conditions: versus isoproterenol, pulsating rate of right atrium; Schild plot regression; six to eight experiments
Text: A 300˜450 gram guinea pig is obtained and hit forcefully at the head to put it into comatose, the artery at the neck is cut to release the blood, then the chest is immediately cut open, and the heart quickly retrieved and placed in Krebs solution that is connected to mixed gas(95% oxygen, 5% carbon dioxide), and the left, right auricles separated. The right auricle, which is pulsating in reflex action, is pinned down on both ends by a frog-heart tweezer, and one end stabilized at the bottom and placed in an organ rinser filled with 10 milliliter of Krebs solution with the mixed gas, and the temperature maintained at 32.5[…]; the other end is connected to the force transducer, and the isometric contractions and pulsating frequency are recorded through the Coulbourn At-High-Speed Videograph. The specimen is given tension between 100-150 milligrams, and upon balancing, the following experiment is conducted:
In order to evaluate the degree of vivacity of the β-blockade on the synthetic compounds, for each detached auricle in reflex pulsation, upon balancing(approximately 60 minutes), the cumulative-concentration curve of the β-agonist isoproterenol is completed twice separately. The experiment is designed as follows: <1>The first curve indicates direct application of isoproterenol from low concentration to high using 0.5 log unit to gradually increase until it reaches the maximum reaction; this is the control unit. <2>the second curve is the experimental unit. Different concentrations of synthetic testing compounds(10^−7 M, 10^−6 M, or 10^−5 M), from low concentration to high, are given 30 minutes to react before isoproterenol is used to complete the cumulative prescription. The EC50 value is obtained from observation of the suppressing effects generated from different concentrations of synthetic testing compounds.
According to the method used by Arunlakshana and Schild in 1959, the corresponding values of the synthetic testing compounds are used as the horizontal coordinate, and the corresponding values on the first derivative of the dose ratio are used as the vertical coordination, the values obtains are graphed and linear regression is implemented to obtain a regressed straight-line horizontal coordinate's extracted distance value, which is the pA2 value for this particular synthetic testing compound.

α-adrenoceptor = conditions: versus L-phenylephrine contraction of detached chest artery; Schild plot regression
Procedure: Same as the blood vein relaxation experiment, detached primary artery taken from the guinea pig is given 1 gram of tension, and upon balancing for 60 minutes, L-phenylephrine is administered directly from low concentration to high using 0.5 log unit to gradually increase until the maximum reaction is reached, and this act as the control unit. Then different concentrations of the synthetic testing compound, 10^−7 M, 10^−6 M, or 10^−5 M, are used, and upon 30 minutes of reaction, L-phenylephrine is used again to complete the cumulative dose. The EC50 value may be obtained from observation of the suppressing effects caused by different concentrations of the synthetic testing compound.
It is same as the calculation method used in the experiment of the detached right auricle.

[3] = tested on: pentobarbital-anesthetized normotensive rats; conditions: mean ± S.E. (n=6)
Procedure: A male Wistar Strain, weighing 300˜450 grams, is administered with 40 mg/kg of pentobarbital sodium via hypodermic syringe for anesthesia before implementing trachea dissection and inserting respiratory tube to ensure the animal maintains smooth breath during operation, while also facilitating emergency rescue. The tube insertion is done with a polyethylene tube (PE50), with inner diameter of […] and outer diameter of 0.97 mm, on the femoral vein to facilitate administering medication during the experiment; a 3-way stopcock is used by connecting one end to the medicated bottle, while the other end is connected to the saline solution bottle, thus some saline solution can be injected right after administering the medication to prevent the medication from lingering in the polyethylene tube (PE50) that may affect the accuracy of the experiment. The left artery is also inserted with the polyethylene tube(PE50) by using the same 3-way stopcock with one end connected to heparin solution as the polyethylene tube (PE50) is equipped with a valve to clear any blockage in the path; the other end is connected to disposable diaphgram dome (TA1019), which is then connected to the data converter, and through an amplifier, and then finally through the recorder to record the medication's impact on the male Wistar Strain's blood pressure and heartbeat. The Wistar Strain is given different dosages of test medication in 1.0, 1.5, 3.0 mg/kg respectively through intravenous injection to examine the medication's effects on heartbeat and blood pressure.

β2-adrenoceptor = target: T1, β2-adrenoceptor (Cavia porcellus, UniProt Q8K4Z4); assay: β2 adrenergic blockade against isoproterenol, isolated guinea pig respiratory tract (Schild plot); conditions: versus isoproterenol relaxation of detached respiratory tract; Schild plot regression
T1 construct: from tissue; host or cells: isolated guinea pig trachea (spiral strips, reserpine-pretreated animal)
T1 sequence (Q8K4Z4 whole entry): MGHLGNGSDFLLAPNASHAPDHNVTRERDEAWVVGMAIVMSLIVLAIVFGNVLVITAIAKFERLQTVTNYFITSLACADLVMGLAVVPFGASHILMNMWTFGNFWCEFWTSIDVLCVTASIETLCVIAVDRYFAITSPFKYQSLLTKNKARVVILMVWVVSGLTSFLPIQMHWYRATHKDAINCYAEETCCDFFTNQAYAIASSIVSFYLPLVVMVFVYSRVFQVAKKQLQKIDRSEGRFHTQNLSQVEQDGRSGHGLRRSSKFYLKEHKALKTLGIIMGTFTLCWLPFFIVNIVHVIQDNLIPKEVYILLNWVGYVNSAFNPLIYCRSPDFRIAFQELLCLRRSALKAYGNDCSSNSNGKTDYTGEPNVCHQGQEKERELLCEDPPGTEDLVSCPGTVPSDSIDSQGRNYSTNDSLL
Procedure: 300-450 gram guinea pig is obtained, and 5 mg/kg reserpine is injected on the belly 18˜24 hours prior to the experiment. Upon hitting the guinea pig into comatose, the artery at the neck is cut and the blood released, and the chest is immediately cut open and the respiratory tract (approximately 4 centimeters long) is taken along the neck and placed in a cultivation dish containing Krems solution at room temperature and connected to mixed gas of 95% oxygen and 5% carbon dioxide. The surrounding tissues are carefully removed, then the respiratory tract is cut to spiral shape that contains 3 to 4 bone coils at each turn, and then cut in two halves, with the two sides clamped by the frog-heart tweezer; one end is stabilized at the bottom and placed in the organ rinser filled with 20 ml of Krebs solution with mixed gas and the temperature maintained at 32° C.; the other side is connected to the force transducer, and even-length isometric contraction is recorded through the Coulbourn At-High-Speed Videograph. The sample is given 2 grams of tension, and upon balancing, the following experiment is conducted.
The respiratory tract used in the experiment is first balanced (approximately one hour) to derive a reflex tension, and then for each half of the respiratory tract, cumulative concentration-response curve for the isoproterenol is completed twice. In the first curve, no synthetic testing compound is added, and is used as the control unit; in the second curve, the synthetic compound first added for an hour before implementing the cumulative concentration-response curve, which is the experimental unit.

β1-adrenoceptor [4] = conditions: versus isoproterenol, contraction of left atrium; Schild plot regression; six to eight experiments
Procedure: The stimulating frequency is 0.5 Hz, resting tension is 0.5 grams. Upon balancing(approximately 50 minutes) the following experiment is conducted;
(a) Completion of the cumulative concentration-response curves, which is similar to the experimenting methods use on the same detached right auricle.
(b) The calculation of pA2 value is same as the calculation method used in the experiment of the detached right auricle.

Row | PA2 value β2 (β2-adrenoceptor) | Compound | percentage of relaxation in comparison with the basal value ([1]; 10^−5 M) | percentage of relaxation in comparison with the basal value ([1]; 10^−6 M) | PA2 value β1 right atrium (β1-adrenoceptor [2]) | PA2 value α (α-adrenoceptor) | Blood pressure change ([3]; 1 mg/kg intravenous) | Blood pressure change ([3]; 1.5 mg/kg intravenous) | Blood pressure change ([3]; 3 mg/kg intravenous) | PA2 value β1 left atrium (β1-adrenoceptor [4]) | percentage of relaxation in comparison with the basal value ([1]; 10^−4 M)
1 | 7.05 | CCOC(=O)C=Cc1ccc(OCC(O)CNCCOc2ccccc2OC)c(OC)c1 (stereo not shown) [Compound 2, 1-[(4-propenoic acid ethyl ester-2-methoxy)phenoxy]-3-[(2-methoxyphenoxyethyl)amino]-propanol] | −42.1 ± 9.1% | −35.9 ± 7.9% | 8.02 | 7.95 | −37.5 ± 5.2 mmHg | −44.2 ± 8.0 mmHg | −52.4 ± 4.5 mmHg | 8.16 | 
2 | 6.13 | CC=Cc1ccc(OCC(O)CNCCOc2ccccc2OC)c(OC)c1 (stereo not shown) [Compound 4, 1-[(4-propenyl-2-methoxy)-phenoxy]-3-[(2-methoxyphenoxyethyl)amino]-propanol] | −30.1 ± 3.6% | −23.4 ± 3.7% | 7.63 | 7.20 | −24.9 ± 3.2 mmHg | −29.5 ± 5.1 mmHg | −36.4 ± 7.2 mmHg | 7.89 | 
3 | 6.59 | C=CCc1ccc(OCC(O)CNCCOc2ccccc2OC)c(OC)c1 (stereo not shown) [Compound 1, 1-[(4-allyl-2-methoxy)phenoxy}-3-[(2-methoxyphenoxyethyl)amino}-propanol] | −51.7 ± 6.8% | −39.7 ± 9.1% | 7.83 | 8.12 | −23.1 ± 4.5 mmHg | −30.1 ± 3.6 mmHg | −38.1 ± 5.1 mmHg | 7.95 | −62.8 ± 8.7^a %

Row | Compound | PA2 value β2 (β2-adrenoceptor) | percentage of relaxation in comparison with the basal value ([1]; 10^−5 M) | percentage of relaxation in comparison with the basal value ([1]; 10^−6 M) | PA2 value β1 right atrium (β1-adrenoceptor [2]) | PA2 value α (α-adrenoceptor) | Blood pressure change ([3]; 1 mg/kg intravenous) | Blood pressure change ([3]; 1.5 mg/kg intravenous) | Blood pressure change ([3]; 3 mg/kg intravenous) | PA2 value β1 left atrium (β1-adrenoceptor [4]) | percentage of relaxation in comparison with the basal value ([1]; 10^−4 M)
4 | CCCCCCCCC(=O)NCc1ccc(OCC(O)CNCCOc2ccccc2OC)c(OC)c1 (stereo not shown) [Compound 3] | 6.81 | −40.7 ± 8.4% | −34.5 ± 4.2% | 7.80 | 7.12 | −32.6 ± 5.5 mmHg | −41.7 ± 4.0 mmHg | −52.0 ± 8.0 mmHg | 7.61 | 
